Results reported in patent US10195166B2, “Methods for treating hepatitis C virus infectious disease” (priority 2013, dated 2019).
No end group written: not given here.

Experiments:
Format in all cases: cell-based, hepatitis C virus
[1] = test system: HCVcc infected Huh7 cells; experiment: HCV replication, GRIM19 overexpression combined with DGAT-1 inhibitor; settings: 40 μM compound of Formula 1 simultaneously with GRIM19 overexpression in HCVcc infected Huh7 cells (FIG. 9)
[2] = test system: in vitro HCV infection model (HCVcc infected Huh7 cells); experiment: HCV RNA level after transfection with expression vectors for GRIM19 domains in in vitro HCV infection model; settings: overexpression of the domain by transfection with expression vector (FIG. 11b)
Method: An expression vector which can express the […], GRIM19-D2 (aa 37-72), GRIM19-D3 (aa 73-101), and GRIM19-D4 (aa 102-144) above was prepared, and the effect of each domain was evaluated in in vitro HCV infection model in Example 2.
In order to prepare the expression vector, the gene for each domain of GRIM19 was obtained through PCR with template of the vector expressing pcDNA3_GRIM19, and each domain was subcloned into pCMV-3Tag-3A vector (Agilent Technologies, Inc.) using restriction sites of restriction enzymes EcoRI and SalI. For GRIM19-D2, GRIM19-D3, and GRIM19-D4 to be expressed in the vector, a start codon was added prior to 5′ of the actually corresponding gene sequence of GRIM19. Accordingly, for each protein fragment, methionine was added prior to the N terminus of the actually corresponding amino acid sequence of GRIM19.

[3] = test system: Huh7 cells infected with HCVcc; experiment: HCV RNA level after direct treatment with cell permeable GRIM19 domain peptides; settings: 10 μM peptide for 48 hours (FIG. 12)
Method: In order to confirm whether an anti-HCV effect is shown when penetrating each domain itself of GRIM19 protein into cells, the effect was evaluated in in vitro HCV infection model by synthesizing peptides in which cell permeable peptide sequences (CP) bind to N-terminal of each domain of GRIM19 of Example 8. The sequences of each domain of GRIM19 comprising the synthesized cell permeable peptide sequences (CP) were analyzed in Table 4 below.
After treating Huh7 cells infected with HCVcc through in vitro HCV infection model of Example 2 with 10 μM of CP-GRIM19-D1, CP-GRIM19-D2, and CP-GRIM19-D3 for 48 hours, the level of RNA in HCV was examined.

[4] = test system: HCVcc infected Huh7 cells; experiment: HCV RNA copies, GRIM19 overexpression and/or sofosbuvir in in vitro HCV infection model; settings: transfection with pcDNA3_GRIM19 plus sofosbuvir (FIG. 10)
Method: HCVcc infected Huh7 cells were transfected with pcDNA3_GRIM19 using FUGENE HD, as in Example 3 above, the cells were treated with sofosbuvir (PharmaBLOCK R&D Co. Ltd.) (Formula 2):
[drawing 6] a compound inhibiting RNA-dependent RNA polymerase activity of HCV, or the cells were transfected with pcDNA3_GRIM19 and treated with sofosbuvir. Then, a change in HCV RNA copies was evaluated.

[5] = test system: HCV; experiment: HCV RNA copies, GRIM19 overexpression combined with metformin; settings: transfection with pcDNA3_GRIM19 plus metformin (FIG. 8)
Source text: In this regard, a change in HCV RNA copies was examined in the case of administration of metformin (Sigama Aldrich, Cat. D150959), an activator of AMP-activated protein kinase (AMPK) inhibiting the activity of ACC, in combination.

| Compound | level of HCV RNA [2] | level of HCV RNA [3] | also measured |
| --- | --- | --- | --- |
| O=C(Nc1ccccc1)Nc1ccc(-c2ccc(C(=O)[C@@H]3CCC[C@H]3C(=O)O)cc2)cc1 [A922500] | – | – | effect of the combination on HCV replication [1]: synergistic effect of inhibiting HCV replication |
| GRIM19-D2: GRIM19 protein fragment aa 37-72 (SEQ ID NO: 8), expressed from pCMV-3Tag-3A vector (MAIGIGTLIYGHWSIMKWNRERRRLQIEDFEARIALL; also: 3Tag vector tags, position not given here) | significantly decreased | – | – |
| CP-GRIM19-D3: synthesized peptide, cell permeable peptide sequence (CP) at N-terminal of GRIM19 domain 3, SEQ ID NO: 16 (RRRRRRRRRPLLQAETDRRTLQMLRENLEEEAIIMKDV; CP-GRIM19-D3) | – | significantly decreased | – |
| GRIM19-D4: GRIM19 protein fragment aa 102-144 (SEQ ID NO: 12), expressed from pCMV-3Tag-3A vector (MDWKVGESVFHTTRWVPPLIGELYGLRTTEEALHASHGFMWYT; also: 3Tag vector tags (pCMV-3Tag-3A)) | significantly decreased | – | – |
| CP-GRIM19-D2: synthesized peptide, cell permeable peptide sequence (CP) at N-terminal of GRIM19 domain 2, SEQ ID NO: 15 (RRRRRRRRRAIGIGTLIYGHWSIMKWNRERRRLQIEDFEARIALL; CP-GRIM19-D2) | – | significantly decreased | – |
| GRIM19-D1: GRIM19 protein fragment aa 1-36 (SEQ ID NO: 6), expressed from pCMV-3Tag-3A vector (MAASKVKQDMPPPGGYGPIDYKRNLPRRGLSGYSML; also: 3Tag vector tags (pCMV-3Tag-3A)) | significantly decreased | – | – |
| CP-GRIM19-D1: synthesized peptide, cell permeable peptide sequence (CP) at N-terminal of GRIM19 domain 1, SEQ ID NO: 14 (RRRRRRRRRMAASKVKQDMPPPGGYGPIDYKRNLPRRGLSGYSML; CP-GRIM19-D1) | – | significantly decreased | – |
| CC(C)OC(=O)[C@H](C)N[P@](=O)(OC[C@H]1O[C@@H](n2ccc(=O)[nH]c2=O)[C@](C)(F)[C@@H]1O)Oc1ccccc1 [sofosbuvir] | – | – | effect of the combination on HCV [4]: synergistic effect of inhibiting HCV; lower increase in HCV RNA than treatment with sofosbuvir alone [4]: ≥ 45% |
| GRIM19-D3: GRIM19 protein fragment aa 73-101 (SEQ ID NO: 10), expressed from pCMV-3Tag-3A vector (MPLLQAETDRRTLQMLRENLEEEAIIMKDV; also: 3Tag vector tags, position not given here) | significantly decreased | – | – |
| CN(C)C(=N)N=C(N)N [metformin] | – | – | effect of the combination on HCV [5]: synergistic effect of inhibiting HCV; increase in HCV RNA compared with treatment with metformin alone [5]: considerably lower |
